Tests used:
Assay in all cases: KINOMEscan (ScanMAX) kinase profiling
Assay type in all cases: binding
[1] = target: T1, panel of 468 kinases (Homo sapiens, UniProt P37023); settings: ACVRL1; 1 μM; read-out: % control
T1 construct: purchased KINOMEscan (ScanMAX) service

[2] = target: T2, panel of 468 kinases (Homo sapiens, UniProt Q8WU08); settings: YANK1; 1 μM; read-out: % control
T2 construct: purchased KINOMEscan (ScanMAX) service

[3] = target: T3, panel of 468 kinases (Homo sapiens, UniProt P50750); settings: CDK9; 1 μM; read-out: % control
T3 construct: purchased KINOMEscan (ScanMAX) service
T3 sequence (P50750 whole entry): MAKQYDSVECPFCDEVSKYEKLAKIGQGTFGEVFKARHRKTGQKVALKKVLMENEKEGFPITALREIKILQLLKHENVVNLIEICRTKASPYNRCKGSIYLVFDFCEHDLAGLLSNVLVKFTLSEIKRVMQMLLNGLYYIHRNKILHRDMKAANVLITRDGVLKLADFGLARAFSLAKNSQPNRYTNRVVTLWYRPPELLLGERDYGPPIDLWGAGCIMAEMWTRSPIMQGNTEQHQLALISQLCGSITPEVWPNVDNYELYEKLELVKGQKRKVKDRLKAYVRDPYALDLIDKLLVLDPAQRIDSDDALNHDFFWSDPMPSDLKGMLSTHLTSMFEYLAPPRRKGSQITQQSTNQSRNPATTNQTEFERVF

[4] = target: T4, panel of 468 kinases (Homo sapiens, UniProt Q15831); settings: LKB1; 1 μM; read-out: % control
T4 construct: purchased KINOMEscan (ScanMAX) service
T4 sequence (Q15831 1-433): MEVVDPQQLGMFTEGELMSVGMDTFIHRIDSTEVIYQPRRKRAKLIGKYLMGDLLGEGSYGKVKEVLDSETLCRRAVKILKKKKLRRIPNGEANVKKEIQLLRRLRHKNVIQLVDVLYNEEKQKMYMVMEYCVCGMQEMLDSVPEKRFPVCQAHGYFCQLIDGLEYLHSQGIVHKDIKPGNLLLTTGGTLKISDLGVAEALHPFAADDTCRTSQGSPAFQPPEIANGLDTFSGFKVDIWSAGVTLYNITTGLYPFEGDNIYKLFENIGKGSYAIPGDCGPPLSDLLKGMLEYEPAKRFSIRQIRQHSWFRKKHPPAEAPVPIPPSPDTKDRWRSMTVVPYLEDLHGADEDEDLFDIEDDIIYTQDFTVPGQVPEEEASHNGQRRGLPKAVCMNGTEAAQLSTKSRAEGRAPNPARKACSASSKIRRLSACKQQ

[5] = target: T5, panel of 468 kinases (Homo sapiens, UniProt P10721, L576P); settings: KIT(L576P); 1 μM; read-out: % control
T5 construct: purchased KINOMEscan (ScanMAX) service
T5 sequence (P10721 26-976 L576P): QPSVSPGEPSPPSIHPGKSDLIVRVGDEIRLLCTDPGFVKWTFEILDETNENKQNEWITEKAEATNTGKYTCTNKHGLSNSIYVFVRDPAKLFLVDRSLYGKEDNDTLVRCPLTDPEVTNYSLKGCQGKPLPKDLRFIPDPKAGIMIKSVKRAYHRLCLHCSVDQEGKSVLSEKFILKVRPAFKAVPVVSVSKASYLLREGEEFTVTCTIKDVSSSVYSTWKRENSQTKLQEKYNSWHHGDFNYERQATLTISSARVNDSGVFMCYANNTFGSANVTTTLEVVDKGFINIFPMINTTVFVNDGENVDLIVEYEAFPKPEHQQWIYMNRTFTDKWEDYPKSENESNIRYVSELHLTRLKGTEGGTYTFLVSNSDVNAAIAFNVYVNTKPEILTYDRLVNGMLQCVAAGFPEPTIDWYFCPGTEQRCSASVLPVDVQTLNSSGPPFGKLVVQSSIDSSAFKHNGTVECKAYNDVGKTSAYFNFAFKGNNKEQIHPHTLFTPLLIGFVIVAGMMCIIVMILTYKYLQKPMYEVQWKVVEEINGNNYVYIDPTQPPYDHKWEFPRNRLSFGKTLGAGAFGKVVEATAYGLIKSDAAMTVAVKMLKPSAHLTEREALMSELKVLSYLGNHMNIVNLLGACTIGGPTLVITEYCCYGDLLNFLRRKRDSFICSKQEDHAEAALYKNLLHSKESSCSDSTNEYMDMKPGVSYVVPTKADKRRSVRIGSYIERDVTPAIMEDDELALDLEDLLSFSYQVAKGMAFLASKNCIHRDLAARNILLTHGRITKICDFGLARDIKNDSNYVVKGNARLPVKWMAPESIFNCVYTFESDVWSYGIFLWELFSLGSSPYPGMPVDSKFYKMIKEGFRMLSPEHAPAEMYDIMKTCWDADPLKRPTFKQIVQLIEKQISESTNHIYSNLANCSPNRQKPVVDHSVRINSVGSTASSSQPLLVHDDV

[6] = target: T6, panel of 468 kinases (Homo sapiens, UniProt Q96L34); settings: MARK4; 1 μM; read-out: % control
T6 construct: purchased KINOMEscan (ScanMAX) service
T6 sequence (Q96L34 1-752): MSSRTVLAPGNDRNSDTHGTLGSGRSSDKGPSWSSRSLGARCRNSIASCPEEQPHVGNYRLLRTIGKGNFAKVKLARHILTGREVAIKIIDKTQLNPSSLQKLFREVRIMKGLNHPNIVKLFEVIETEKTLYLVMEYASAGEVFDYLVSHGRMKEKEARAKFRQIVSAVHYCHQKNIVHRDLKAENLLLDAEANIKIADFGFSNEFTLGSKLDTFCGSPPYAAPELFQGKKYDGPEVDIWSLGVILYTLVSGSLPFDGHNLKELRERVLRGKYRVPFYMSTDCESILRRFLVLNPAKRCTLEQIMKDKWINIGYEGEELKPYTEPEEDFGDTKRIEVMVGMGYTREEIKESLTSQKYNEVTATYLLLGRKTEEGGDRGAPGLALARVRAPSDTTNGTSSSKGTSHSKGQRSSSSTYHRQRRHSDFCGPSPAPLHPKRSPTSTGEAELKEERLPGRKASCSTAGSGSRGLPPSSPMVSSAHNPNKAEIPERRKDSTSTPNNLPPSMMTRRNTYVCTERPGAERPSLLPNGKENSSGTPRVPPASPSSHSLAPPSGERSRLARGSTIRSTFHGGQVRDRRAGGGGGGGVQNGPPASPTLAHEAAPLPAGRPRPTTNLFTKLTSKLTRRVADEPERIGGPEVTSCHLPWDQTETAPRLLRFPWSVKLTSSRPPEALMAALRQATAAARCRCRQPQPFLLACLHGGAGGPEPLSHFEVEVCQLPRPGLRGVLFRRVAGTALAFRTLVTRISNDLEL

[7] = target: T7, panel of 468 kinases (Homo sapiens, UniProt O95835); settings: LATS1; 1 μM; read-out: % control
T7 construct: purchased KINOMEscan (ScanMAX) service
T7 sequence (O95835 1-1130): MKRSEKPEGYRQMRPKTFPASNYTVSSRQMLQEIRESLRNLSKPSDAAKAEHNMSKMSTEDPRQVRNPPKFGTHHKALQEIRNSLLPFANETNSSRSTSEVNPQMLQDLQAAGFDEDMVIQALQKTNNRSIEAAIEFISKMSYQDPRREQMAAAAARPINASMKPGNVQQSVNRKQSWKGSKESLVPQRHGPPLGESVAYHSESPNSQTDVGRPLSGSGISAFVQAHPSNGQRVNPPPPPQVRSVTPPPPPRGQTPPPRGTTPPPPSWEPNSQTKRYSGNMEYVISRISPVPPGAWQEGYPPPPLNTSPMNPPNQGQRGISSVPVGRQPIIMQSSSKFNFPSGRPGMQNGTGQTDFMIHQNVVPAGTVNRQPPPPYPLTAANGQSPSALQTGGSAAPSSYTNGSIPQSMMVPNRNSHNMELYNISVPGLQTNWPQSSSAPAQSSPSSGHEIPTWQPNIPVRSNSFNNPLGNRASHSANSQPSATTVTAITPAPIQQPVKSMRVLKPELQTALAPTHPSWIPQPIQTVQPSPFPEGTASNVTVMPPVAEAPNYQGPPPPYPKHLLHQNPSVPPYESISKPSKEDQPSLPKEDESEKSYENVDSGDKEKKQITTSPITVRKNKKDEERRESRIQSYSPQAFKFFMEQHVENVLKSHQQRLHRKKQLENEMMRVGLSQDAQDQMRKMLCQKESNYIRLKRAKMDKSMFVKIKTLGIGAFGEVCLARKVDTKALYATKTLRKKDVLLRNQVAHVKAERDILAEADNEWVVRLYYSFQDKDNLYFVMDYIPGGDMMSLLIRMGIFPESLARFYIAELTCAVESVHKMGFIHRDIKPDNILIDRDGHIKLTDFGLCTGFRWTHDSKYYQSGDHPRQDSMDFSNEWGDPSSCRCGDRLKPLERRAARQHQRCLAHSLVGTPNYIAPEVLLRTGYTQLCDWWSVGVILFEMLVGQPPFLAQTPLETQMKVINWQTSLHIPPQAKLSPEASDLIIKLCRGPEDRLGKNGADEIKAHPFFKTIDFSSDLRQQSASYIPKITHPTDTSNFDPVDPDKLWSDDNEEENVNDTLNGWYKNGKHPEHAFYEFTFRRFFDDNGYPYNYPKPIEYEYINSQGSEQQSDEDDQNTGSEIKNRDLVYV

T2 sequence (Q8WU08 whole entry): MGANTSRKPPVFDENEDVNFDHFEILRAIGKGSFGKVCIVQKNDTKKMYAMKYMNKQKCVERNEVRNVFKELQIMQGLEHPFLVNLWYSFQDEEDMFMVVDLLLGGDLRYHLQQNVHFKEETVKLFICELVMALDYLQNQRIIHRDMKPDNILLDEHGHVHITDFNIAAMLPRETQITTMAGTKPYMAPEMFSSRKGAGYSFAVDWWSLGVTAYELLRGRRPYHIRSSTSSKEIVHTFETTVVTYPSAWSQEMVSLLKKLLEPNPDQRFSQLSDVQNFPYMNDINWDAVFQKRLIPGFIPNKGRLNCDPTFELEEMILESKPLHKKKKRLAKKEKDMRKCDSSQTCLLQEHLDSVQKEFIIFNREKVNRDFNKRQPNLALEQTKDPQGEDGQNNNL
T1 sequence (P37023 22-503): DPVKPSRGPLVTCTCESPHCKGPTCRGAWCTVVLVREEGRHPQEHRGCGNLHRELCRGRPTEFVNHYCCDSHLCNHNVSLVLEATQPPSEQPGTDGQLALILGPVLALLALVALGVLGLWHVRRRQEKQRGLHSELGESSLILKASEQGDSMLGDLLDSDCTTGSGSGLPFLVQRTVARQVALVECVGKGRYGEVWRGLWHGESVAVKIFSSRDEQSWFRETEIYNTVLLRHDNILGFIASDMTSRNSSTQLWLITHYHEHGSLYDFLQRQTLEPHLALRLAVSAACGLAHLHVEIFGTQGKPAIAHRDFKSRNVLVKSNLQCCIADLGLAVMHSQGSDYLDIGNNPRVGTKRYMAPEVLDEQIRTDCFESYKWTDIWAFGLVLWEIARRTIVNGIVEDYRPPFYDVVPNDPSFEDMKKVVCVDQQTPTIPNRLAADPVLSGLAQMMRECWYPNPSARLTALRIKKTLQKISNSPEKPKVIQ

Row | SMILES | remaining binding at 1 µM [1] [%] | remaining binding at 1 µM [2] [%] | remaining binding at 1 µM [3] [%] | remaining binding at 1 µM [4] [%] | remaining binding at 1 µM [5] [%] | remaining binding at 1 µM [6] [%] | remaining binding at 1 µM [7] [%]
1 | CNc1nc(Nc2ccc(C(=O)N3CCC(N4CCOCC4)CC3)c3c2OCO3)nc2[nH]cc(Cl)c12 [Compound 75, (7-((5-chloro-4-(methylamino)-7H-pyrrolo[2,3-d]pyrimidin-2-yl)amino)benzo[d][1,3]dioxol-4-yl)(4-morpholinopiperidin-1-yl)methanone] | 100 | 100 | 100 | 100 | 36 | 96 | 100
2 | CNc1nc(Nc2ccc(S(=O)(=O)N3CCC(N4CCOCC4)CC3)cc2OC)nc2[nH]cc(Cl)c12 [Compound 12, 5-chloro-N2-(2-methoxy-4-((4-morpholinopiperidin-1-yl)sulfonyl)phenyl)-N4-methyl-7H-pyrrolo[2,3-d]pyrimidine-2,4-diamine] | 100 | 100 | 100 | 100 | 97 | 98 | 100
3 | CNc1nc(Nc2ccc(P3(=O)CCN(C4CCOCC4)CC3)cc2OC)nc2[nH]cc(Cl)c12 [Compound 77, 4-(4-((5-chloro-4-(methylamino)-7H-pyrrolo[2,3-d]pyrimidin-2-yl)amino)-3-methoxyphenyl)-1-(tetrahydro-2H-pyran-4-yl)-1,4-azaphosphinane 4-oxide] | 100 | 98 | 100 | 100 | 100 | 97 | 100

— US12479847B2 (DANA-FARBER CANCER INSTITUTE, INC., priority 2019, dated 2025)
